From article PMC5365251, “Biophysical assay for tethered signaling reactions reveals tether-controlled activity for the phosphatase SHP-1” (Science Advances, 2017)

Legend:
PEG28-ITIM [1] = experiment: Anti-phosphotyrosine antibody injected after SHP-1 on SPR chip: surviving phosphotyrosines; type: biochemical, mouse
Description: To create a substrate surface for SHP-1 in SPR, we coated a surface with peptides containing an ITIM sequence, from the […] of the inhibitory receptor LAIR-1, with a 28-repeat polyethylene glycol (PEG) spacer (PEG28-ITIM; Table 1). When SHP-1 was injected over this surface, we observed a complicated curve with an initial binding phase that was quickly followed by a reduction in binding despite continuous injection of SHP-1 (Fig. 2A). To convert the arbitrary response units reported by the SPR instrument to a more meaningful unit, we normalized this curve to maximum binding, assuming a one-to-one interaction with peptide (see Materials and Methods).
Fig. 2 An SPR assay recovers five independent biophysical/biochemical constants characterizing tethered enzymatic reactions by SHP-1. (A) Representative SPR trace (black dots) for SHP-1 injected over a surface immobilized with 48.5 RU of an ITIM peptide derived from LAIR-1 on a 28-repeat PEG linker (PEG28-ITIM). A fit of the MPDPDE model (red line) provides estimates for the indicated parameters. Early time data and fit are shown on the right. S1. […] (C) Schematic of reactions taking place when SHP-1 is injected over a surface of immobilized phosphorylated peptides. […]

PEG28-ITIM [2] = experiment: SPR of SHP-1 injected over immobilised PEG28-ITIM: binding constants (MPDPDE fit); design: species or system mouse; conditions: tethered SPR assay with active PTP domain
Description: A construct expressing murine SHP-1 with an N-terminal 6× His tag was provided by M. H. Brown. Mutation of the SH2 domains was performed using a quick-change strategy. The mutations introduced were R30K and R33E for the N-terminal SH2 domain mutant and R136K for the C-terminal SH2 domain mutant previously shown to result in loss of binding ([6]). All peptides were ordered from PeptideSynthetics and were certified to be >95% pure. Peptides sequences were derived from the membrane-proximal ITIM sequence of mouse LAIR-1 receptor.
Experiments were performed on a Biacore 3000 instrument (GE Healthcare Life Sciences). All experiments were performed at 10°C and with a buffer flow rate of 10 μl/min. The buffer used was Hepes-buffered saline (HBS-EP; GE Healthcare Life Sciences), which contained 10 mM Hepes (pH 7.4), 150 mM NaCl, 3 mM EDTA, and 0.005% Surfactant P20.
A CM5 sensorchip was coupled with streptavidin to near saturation (typically between 4000 and 7000 RU) using the amine coupling kit (GE Healthcare Life Sciences) as described previously ([42]). After streptavidin was coupled, biotinylated peptides were injected to give the indicated concentrations in experimental flow cells, and excess biotin-binding sites were blocked with biotin in HBS-EP. The molar ratio of peptide to streptavidin was kept below 1:1 to ensure that peptide immobilization was random and not clustered on the tetravalent streptavidin molecules. Reference flow cells were treated with buffer and then blocked with biotin; pilot experiments using unphosphorylated control peptides in reference flow cells were indistinguishable from buffer-treated reference flow cells when injected with SHP-1. The chip surface was then conditioned with 5 × 5-min injections of HBS-EP. SHP-1 protein in HBS-EP with 1 mM dithiothreitol was then injected over reference and experimental flow cells in series for 5 min at the indicated concentrations. All SPR data were converted from the reference-subtracted data (in resonance units) to fraction bound by dividing the resonance units by the theoretical maximum resonance units expected if the experimental flow cell was saturated with bound SHP-1.
To determine the concentration of peptide in the assays, we first needed a conversion factor between the resonance units and the mass of peptide at the chip surface. We determined this conversion factor by injecting four concentrations of SHP-1 over a control flow cell on a CM5 chip and plotting the mass of SHP-1 injected against the raw resonance unit change. We repeated this on seven flow cells across four sensor chips to get an average slope of 149 ± 15 RU per g/liter (±SEM). […]

- bivalent reactions (in words) (PEG28-ITIM [2]): no evidence for bivalent reactions
Substance: SHP-1: murine SHP-1 tyrosine phosphatase with an N-terminal 6× His tag, expressed in E. coli
- dephosphorylation of immobilised peptide (in words) (PEG28-ITIM [1]; anti-phosphotyrosine antibody (clone 4G10) injected after SHP-1 on SPR chip, PEG28-ITIM): near complete dephosphorylation
- anti-phosphotyrosine antibody binding after SHP-1 injection (in words) (PEG28-ITIM [1]; experimental flow cell compared to buffer-injected control with equivalent peptide levels, Fig. 2B): reduced binding
